Reference: PubChem BioAssay (NCI)
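Step 1: Grow cells in 96-well plates. Step 2: Expose to compound for 48 hours at 5 concentrations. Step 3: Interpolate endpoints linearly; if unreached, use highest concentration. At the GI50, growth is halved. The concentration for full growth arrest is given as TGI.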

Legend:
Experiment in all cases: NCI anticancer screen, dose series, 48 h
[1] = test system: 786-0 renal
[2] = test system: A498 renal
[3] = test system: A549 NSCLC
[4] = test system: ACHN renal
[5] = test system: BT-549 breast
[6] = test system: CAKI-1 renal
[7] = test system: CCRF-CEM leukemia
[8] = test system: COLO 205 colon
[9] = test system: DU-145 prostate
[10] = test system: EKVX NSCLC
[11] = test system: HCC-2998 colon
[12] = test system: HCT-116 colon
[13] = test system: HCT-15 colon
[14] = test system: HL-60(TB) leukemia
[15] = test system: HOP-62 NSCLC
[16] = test system: HOP-92 NSCLC
[17] = test system: HS 578T breast
[18] = test system: HT29 colon
[19] = test system: IGROV1 ovarian
[20] = test system: K-562 leukemia
[21] = test system: KM12 colon
[22] = test system: LOX IMVI melanoma
[23] = test system: M14 melanoma
[24] = test system: MALME-3M melanoma
[25] = test system: MCF7 breast
[26] = test system: MDA-MB-231 breast
[27] = test system: MDA-MB-435
[28] = test system: MOLT-4 leukemia
[29] = test system: NCI-H226 lung
[30] = test system: NCI-H23 lung
[31] = test system: NCI-H460 lung
[32] = test system: NCI-H522 lung
[33] = test system: OVCAR-3 ovarian
[34] = test system: OVCAR-4 ovarian
[35] = test system: OVCAR-5 ovarian
[36] = test system: OVCAR-8 ovarian
[37] = test system: PC-3 prostate
[38] = test system: RPMI-8226 leukemia
[39] = test system: RXF 393 renal
[40] = test system: SF-268 CNS
[41] = test system: SF-295 CNS
[42] = test system: SF-539 CNS
[43] = test system: SK-MEL-28 melanoma
[44] = test system: SK-MEL-5 melanoma
[45] = test system: SK-OV-3 ovarian
[46] = test system: SN12C renal
[47] = test system: SNB-19 CNS
[48] = test system: SNB-75 CNS
[49] = test system: SR leukemia
[50] = test system: SW-620 colon
[51] = test system: T-47D breast
[52] = test system: TK-10 renal
[53] = test system: U251 CNS
[54] = test system: UACC-257 melanoma
[55] = test system: UACC-62 melanoma
[56] = test system: UO-31 renal
[57] = test system: NCI/ADR-RES ovarian
[58] = test system: SK-MEL-2 melanoma

NC(=O)c1cc(Br)ccc1NC(=O)/C=C/c1ccccc1
GI50 [1]: 3720 nM | TGI [1]: > 34.8 µM | GI50 [2]: 1660 nM | TGI [2]: 11.7 µM | GI50 [3]: 2.39 µM | TGI [3]: > 100 µM | GI50 [4]: 6.45 µM | TGI [4]: > 100000 nM | GI50 [5]: 4.97 µM | TGI [5]: 28.7 µM | GI50 [6]: 6.17 µM | TGI [6]: > 100000 nM | GI50 [7]: 803 nM | TGI [7]: 9.97 µM | GI50 [8]: 1230 nM | TGI [8]: > 39500 nM | GI50 [9]: 2300 nM | TGI [9]: > 100000 nM | GI50 [10]: 3270 nM | TGI [10]: > 100 µM | GI50 [11]: 28.1 µM | TGI [11]: > 100 µM | GI50 [12]: 1240 nM | TGI [12]: > 100000 nM | GI50 [13]: 1380 nM | TGI [13]: > 100000 nM | GI50 [14]: 876 nM | TGI [14]: 4.11 µM | GI50 [15]: 5.47 µM | TGI [15]: > 23.7 µM | GI50 [16]: 5.34 µM | TGI [16]: 25.8 µM | GI50 [17]: 1090 nM | TGI [17]: 6.27 µM | GI50 [18]: 914 nM | TGI [18]: > 100 µM | GI50 [19]: 2350 nM | TGI [19]: > 100 µM | GI50 [20]: 829 nM | TGI [20]: > 34.4 µM | GI50 [21]: 1090 nM | TGI [21]: > 100 µM | GI50 [22]: 10.6 µM | TGI [22]: > 100000 nM | GI50 [23]: 1960 nM | TGI [23]: > 100 µM | GI50 [24]: 11.6 µM | TGI [24]: > 100 µM | GI50 [25]: 757 nM | TGI [25]: > 100 µM | GI50 [26]: 2870 nM | TGI [26]: > 41.4 µM | GI50 [27]: 421 nM | TGI [27]: 3.09 µM | GI50 [28]: 4020 nM | TGI [28]: > 53.9 µM | GI50 [29]: 6.93 µM | TGI [29]: > 100 µM | GI50 [30]: 10.8 µM | TGI [30]: > 100 µM | GI50 [31]: 1420 nM | TGI [31]: > 100 µM | GI50 [32]: 981 nM | TGI [32]: 22 µM | GI50 [33]: 887 nM | TGI [33]: 4.21 µM | GI50 [34]: 8.85 µM | TGI [34]: > 100 µM | GI50 [35]: 10.3 µM | TGI [35]: > 100 µM | GI50 [36]: 14.1 µM | TGI [36]: > 100 µM | GI50 [37]: 1190 nM | TGI [37]: > 100 µM | GI50 [38]: 3290 nM | TGI [38]: > 100 µM | GI50 [39]: 1150 nM | TGI [39]: 5.9 µM | GI50 [40]: 2850 nM | TGI [40]: > 39.4 µM | GI50 [41]: 1.33 µM | TGI [41]: > 20.3 µM | GI50 [42]: 1240 nM | TGI [42]: 8.57 µM | GI50 [43]: 1420 nM | TGI [43]: > 100 µM | GI50 [44]: 608 nM | TGI [44]: > 60.2 µM | GI50 [45]: 3.68 µM | TGI [45]: > 23.6 µM | GI50 [46]: 4.9 µM | TGI [46]: > 100 µM | GI50 [47]: 5.36 µM | TGI [47]: > 36.9 µM | GI50 [48]: 2160 nM | TGI [48]: 10.7 µM | GI50 [49]: 823 nM | TGI [49]: > 100 µM | GI50 [50]: 986 nM | TGI [50]: > 100000 nM | GI50 [51]: 3510 nM | TGI [51]: > 100 µM | GI50 [52]: 5.93 µM | TGI [52]: 39.3 µM | GI50 [53]: 1810 nM | TGI [53]: > 43.4 µM | GI50 [54]: 24.9 µM | TGI [54]: > 100 µM | GI50 [55]: 1240 nM | TGI [55]: > 100000 nM | GI50 [56]: 3370 nM | TGI [56]: > 100000 nM

C=C1C(=O)O[C@H]2[C@H]1CC/C(CNC(=O)/C=C/c1ccccc1F)=C\CC[C@@]1(C)O[C@@H]21
GI50 [1]: 1590 nM | TGI [1]: 3.71 µM | GI50 [2]: 2600 nM | TGI [2]: 7.49 µM | GI50 [3]: 7 µM | TGI [3]: 24.5 µM | GI50 [4]: 1.12 µM | TGI [4]: 2530 nM | GI50 [5]: 1.48 µM | TGI [5]: 3.45 µM | GI50 [6]: 1.3 µM | TGI [6]: 2670 nM | GI50 [7]: 416 nM | TGI [7]: 2.92 µM | GI50 [8]: 1400 nM | TGI [8]: 2960 nM | GI50 [9]: 1030 nM | TGI [9]: 2260 nM | GI50 [10]: 1890 nM | TGI [10]: 5.95 µM | GI50 [11]: 1.88 µM | TGI [11]: 3.59 µM | GI50 [12]: 482 nM | TGI [12]: 1690 nM | GI50 [13]: 1010 nM | TGI [13]: 2490 nM | GI50 [15]: 3.89 µM | TGI [15]: 16.6 µM | GI50 [16]: 1.62 µM | TGI [16]: 4.13 µM | GI50 [17]: 2420 nM | TGI [17]: 16.9 µM | GI50 [18]: 1220 nM | TGI [18]: 3.08 µM | GI50 [19]: 1690 nM | TGI [19]: 4.65 µM | GI50 [20]: 577 nM | TGI [20]: 7.45 µM | GI50 [21]: 4400 nM | TGI [21]: 17.3 µM | GI50 [22]: 1.19 µM | TGI [22]: 2560 nM | GI50 [23]: 1340 nM | TGI [23]: 3.05 µM | GI50 [24]: 1.54 µM | TGI [24]: 3.52 µM | GI50 [26]: 1930 nM | TGI [26]: 4.44 µM | GI50 [27]: 1500 nM | TGI [27]: 6.34 µM | GI50 [28]: 1550 nM | TGI [28]: 4.86 µM | GI50 [29]: 2.42 µM | TGI [29]: 6.94 µM | GI50 [30]: 1.88 µM | TGI [30]: 4.42 µM | GI50 [31]: 2360 nM | TGI [31]: 6.19 µM | GI50 [32]: 399 nM | TGI [32]: 1.64 µM | GI50 [57]: 3.1 µM | TGI [57]: 26.9 µM | GI50 [33]: 691 nM | TGI [33]: 2.1 µM | GI50 [34]: 1.66 µM | TGI [34]: 4.57 µM | GI50 [35]: 1.9 µM | TGI [35]: 5.15 µM | GI50 [36]: 2.95 µM | TGI [36]: 11.8 µM | GI50 [37]: 2000 nM | TGI [37]: 4.29 µM | GI50 [38]: 1410 nM | TGI [38]: 5.84 µM | GI50 [39]: 1240 nM | TGI [39]: 2.7 µM | GI50 [40]: 2830 nM | TGI [40]: 9.8 µM | GI50 [41]: 7.16 µM | TGI [41]: 20.9 µM | GI50 [42]: 1260 nM | TGI [42]: 2.94 µM | GI50 [58]: 1700 nM | TGI [58]: 3.52 µM | GI50 [43]: 1950 nM | TGI [43]: 6.19 µM | GI50 [44]: 1780 nM | TGI [44]: 3.29 µM | GI50 [45]: 13.1 µM | TGI [45]: 28.3 µM | GI50 [46]: 1.62 µM | TGI [46]: 4.41 µM | GI50 [47]: 3.83 µM | TGI [47]: 14.4 µM | GI50 [48]: 2180 nM | TGI [48]: 8.29 µM | GI50 [49]: 482 nM | TGI [49]: 6.88 µM | GI50 [50]: 487 nM | TGI [50]: 1660 nM | GI50 [51]: 1740 nM | TGI [51]: 4.53 µM | GI50 [52]: 1.66 µM | TGI [52]: 3.25 µM | GI50 [53]: 1860 nM | TGI [53]: 3.75 µM | GI50 [54]: 1.77 µM | TGI [54]: 3.59 µM | GI50 [55]: 1470 nM | TGI [55]: 2940 nM | GI50 [56]: 1340 nM | TGI [56]: 2910 nM
